The values below come from patent US20140196172A1, “Organelle Targeting Nanocarriers” (Her Majesty the Queen in Right of Canada, as Repre sented …, priority 2011, published 2014).

The subject of assay [1] is MG (bovine mammary gland) cells. As to the kind of experiment: Uptake of labeled peptides by MG cells, photometric cell imaging. The assay is classed as cell-based. Particulars: for Average concentration of labeled peptide measured in cells, MG: cells exposed to labeled peptide at 17 μM; for Photometric Cell Imaging (average counts/sec) MG: 1 hr, background about 1×10^5 counts/sec. On the procedure: MG cells are cultured in Dulbecco's Modified Eagle Medium (DMEM) containing 20% (v/v) fetal bovine serum (FBS) and 50 μg/ml gentamycin at 37° C. in a 95% humidified atmosphere containing 5% CO2. The cells are grown in Falcon™ 25 cm^2 or 75 cm^2 cell culture flasks until they reach confluency, then are detached with 0.25% trypsin and 0.02% EDTA and washed with DMEM.
Preparations used for photometric cell imaging are prepared by adding 1000 cells to a Nunc coverglass chamber (2.5 cm^2). Cells are cultured as described above for 3 to 7 days. The cell monolayers are rinsed three times with epithelial cell saline (pH 7.4).
Varying concentrations of fluoresceinated mTPs (100 μM) are added to epithelial cell saline to obtain a final working volume of 400 μl. Final concentrations added to the Caco-2, F1112 and MG cell monolayers as described above are 17 μM, 9 μM and 4 μM. Cells are incubated with the peptides for 1 hr in the dark at 37° C. in a 95% humidified atmosphere containing 5% CO2. At the end of the incubation period, the cell monolayer is rinsed three times with epithelial cell saline and 500 μl of epithelial cell saline is added.
Uptake of labeled peptides by cells is quantified using a photometric detector/cell-imaging system (PTI). An excitation scan is run to determine if uptake has occurred as indicated by peaks at the appropriate wavelengths and if the amount changes in a dose-dependent manner compared to unlabeled cells. A time-based scan is then performed at the optimal excitation and emission wavelength to quantify total uptake, using about 20 cells/view/replicate.

The test system of assay [2] is MDCK (Madin-Darby canine kidney) cells. The assay can be described thus: Incubation of MDCK cells with fluorescently labeled peptides, confocal microscopy. Format: cell-based. As to conditions: fluorescein-labelled peptide, 1 h, MitoTracker Orange. On the procedure:
MDCK cells are cultured in Dulbecco's Modified Eagle Medium (DMEM) containing 5% (v/v) fetal bovine serum (FBS) and 1% (v/v) penicillin/streptomycin at 37° C. in a humidified atmosphere containing 5% CO2. The cells grown on 10-cm dishes are detached with trypsin and ethylenediaminetetraacetic acid (EDTA) and washed with DMEM/FBS. Cells used for microscopy are prepared by adding 100 000 cells to the apical chamber of 12-mm diameter Transwell™ permeable supports (Costar, Cambridge, Mass.). Cells are cultured in DMEM/FBS for 3-5 days.
MDCK cells cultured in apical chambers of 12-mm diameter Transwell™ permeable supports are incubated with 80 μl fluoresceinated mTPs or cTPs (100 μM) and 320 μl of Dulbecco's Modified Eagle Medium (DMEM) for 1 h in the dark at room temperature, followed by washing with 400 μl of DMEM.
Cells are observed using a confocal microscope (Nikon C1, Nikon Canada Inc. or Olympus FluoView™) to analyse the localization of the fluoresceinated mTPs or cTPs (excitation wavelength 490 nm/emission wavelength 520 nm). Chloroplasts are identified by autofluorescence. The fluorescent dye MitoTracker® Orange CM-H2TMRos (M7511, Invitrogen) is used to stain mitochondria (excitation wavelength 554 nm/emission wavelength 576 nm). Fluorescence emissions are collected in z-confocal planes of […] and analyzed using EZ-C1 Software Version 3.6 (Nikon) or Olympus FluoView™ software version 2.0b (Olympus).

Consider MAAWMRSLFSPLKKLWIRMH (Zea mays) [mTP2], for which the “Average concentration of labeled peptide measured in cells, MG” value in assay [1] worked out at 62 nm. In addition, the “Photometric Cell Imaging (average counts/sec) MG” value is given as 140000 counts/sec in assay [1] (labeled peptide 4 μM), 160000 counts/sec in assay [1] (labeled peptide 9 μM) and 1500000 counts/sec in assay [1] (labeled peptide 17 μM). Moreover, in assay [2], the Mitochondrial targeting result is given as “non-specific mitochondrial localization”.
For “MFSYLPRYPLRAASARALVRATRPSYRSALLRYQ (listed as Triticum aestivum) [mTP1]”, in that order: 78 nm, 400000 counts/sec, 1800000 counts/sec, 1900000 counts/sec and “Specific mitochondrial targeting”.
For “MKLLWRLILSRKW (listed as Arabidopsis thaliana) [mTP3]”, in that order: 62 nm, 430000 counts/sec, 1000000 counts/sec, 1500000 counts/sec and “Specific mitochondrial targeting”.
For “MLFRLRRSVRLRGLLA (listed as Arabidopsis thaliana) [mTP5]”, in that order: 60 nm, 440000 counts/sec, 1400000 counts/sec, 1600000 counts/sec and “Specific mitochondrial targeting”.
In the case of “MWWRRSRTNSLRYT (listed as Arabidopsis thaliana) [mTP4]”, the “Average concentration of labeled peptide measured in cells, MG” value in assay [1] is given as 58 nm. The “Photometric Cell Imaging (average counts/sec) MG” value was 430000 counts/sec in assay [1] (labeled peptide 4 μM), 1200000 counts/sec in assay [1] (labeled peptide 9 μM) and 1400000 counts/sec in assay [1] (labeled peptide 17 μM). Further, the Mitochondrial targeting result in assay [2] was “non-specific mitochondrial localization”.
